From patent US20230381248A1, “METHOD FOR TREATING AND/OR PREVENTING ATOPY AND ALLERGIC DISEASES BY USING BACTERIA OR COMPOSITIONS HAVING 7 ALPHA-DEHYDROXYLASE ACTIVITY, AND/OR BILE ACID RECEPTORS FXR AND/OR TGR5 AGONISTS” (NATIONAL TAIWAN UNIVERSITY HOSPITAL, priority 2022, published 2023)

Columns and labels:
[1] = test system: OVA-induced allergic airway disease; assay: Severity of OVA-induced allergic airway disease after FxR and TGR5 agonist pre-treatment; type: in vivo, BALB/c mice; settings: oral gavage 30 mg/kg/day twice a week from 3 w/o
Protocol: (§1) The model uses ovalbumin (OVA) as the allergen to induce allergic airway inflammation of the mice. Briefly, allergen sensitization was induced in 5 w/o BALB/c mice by two intraperitoneal injection (i.p.) of 50 μg ovalbumin (OVA) plus 2 mg alum at 10-14-day interval. One week after the second OVA i.p. sensitization, 30-min aerosol 5% OVA inhalation challenge (ih) was performed for 3 consecutive days.
(§2) OVA-induced allergic airway disease was induced in 5 w/o BALB/c mice according to the protocol as depicted. […] Age- and sex-matched control mice were given the vehicle containing methyl cellulose.
The effects of FxR and TGR5 signaling in alleviating the severity of OVA-induced allergic airway disease are investigated in this example Mice were pre-treated by FxR and TGR5 agonists, followed by sensitization and asthmatic response of mice as depicted in FIG. 6. One day after the 3rd aerosol OVA challenge, sera and bronchoalveolar lavage fluids (BALF) were collected and parameters reflecting the severity of allergic inflammation were tested. […] Neg Ctrl represents healthy control. N=12-14 mice/group.

[2] = test system: PMN-MDSC and regulatory T-cell (Treg); assay: Induction of immune-regulatory cells by FxR and TGR5 agonist pre-treatment in the OVA allergic airway disease model, flow cytometry; type: in vivo, BALB/c mice; settings: oral gavage 30 mg/kg/day twice a week from 3 w/o; BALF, PB, BM, Spl after aerosol OVA challenge; vs vehicle control
Protocol: as §1, §2
The effects of FXR and TGR5 signaling in inducing both innate and adaptive immune-regulatory cells (i.e., PMN-MDSC and Treg) are investigated in this example. Mice were pre-treated by FxR and TGR5 agonists, followed by allergen sensitization and induction of allergic airway disease as depicted in FIG. 6. […] BALF represents bronchoalveolar lavage fluid, PB represents peripheral blood, BM represents bone marrow, Spl represents spleen. […] FoxP3 is an intracellular specific marker of regulatory T-cell and acts as a major regulator in the development and function of regulatory T-cell. **P<0.01; ***P<0.001, comparison was made by analysis of variance (ANOVA).

## CC[C@H]1[C@@H](O)[C@@H]2[C@H](C[C@H](O)[C@]3(C)[C@@H]([C@H](C)C[C@H](C)C(=O)O)CC[C@@H]23)[C@@]2(C)CC[C@@H](O)C[C@@H]12 [TGR5 agonist, 6-EMCA]
[1]; one day after 3rd aerosol OVA challenge
  four parameters indicative of allergic airway disease severity (seral OVA-specific IgE, BALF leukocyte counts, BALF IL-5, airway resistance to methacholine): mitigated
[1]; vs control mice receiving vehicle, N=12-14 mice/group
  airway disease severity: significantly milder airway disease
[2]
  expansion of adaptive immune-regulatory cell, Treg: can induce the expansion
  expansion of innate immune-regulatory cells, PMN-MDSC: can induce the expansion
